Measurements from patent EP0567613B1, “COMPOSITIONS FOR THERAPY AND PREVENTION OF CANCER” (The Government of the United States of America, as …, priority 1991, dated 1993).
Read-outs that look alike come from different tables or passages of the source.

Tests used:
[1] = test system: Melanoma SK MEL 28; assay: Tumor cell growth / proliferation; format: cell-based; conditions: Homo sapiens
[2] = test system: NIH 3T3 cells carrying activated EJras oncogene; assay: Prevention of neoplastic transformation, oncogene transfer (ras-transformed foci); format: cell-based; conditions: treatment initiated 24-48 hr after oncogene transfer, scored 14-21 days later
Excerpt: Left: Untreated control cells at about 3 weeks after DNA transfer. Middle: control of cells with as oncogenes, showing the rate of spontaneous transformation. Right: Oncogene-transfected cells, […] with NaPA.
The effect was reversible upon cessation of treatment. In treated humans, however, the fate of the premalignant cells may be substantially different due to involvement of humoral and cellular immunity (see below).

[3] = test system: adipocyte-specific aP2 gene; assay: Northern blot analysis of aP2 expression; format: cell-based, mouse; conditions: treated confluent 10T1/2 cultures
Protocol: (§1) Cytoplasmic RNA (20 µg/lane) was subjected to Northern blot analysis using ^32P-labeled specific DNA probes. Ethidium bromide-stained […] indicates the relative amounts of total RNA in each lane. Figure A. Induction of a P2 expression in 10T1/2 cells. […] Figure B. Kinetics of myc inhibition and HLA-A induction in HL-60. […] Figure C. Dose-dependent and specificity of effect.
In an attempt to explore the possible mechanism of action, Northern blot analysis of HL-60 and 10T1/2 cells was performed according to conventional methods. […] The aP2 cDNA probe was labeled with [^32P]dCTP (NEN) using a commercially available random primed DNA labeling kit. Ethidium bromide-stained 28S rRNA indicates the relative amounts of total RNA in each lane.
Expression of the adipocyte-specific aP2 gene was induced within 24 hrs in treated 10T1/2 confluent cultures reaching maximal mRNA levels by 72 hrs.

[4] = test system: Fibrosarcoma V7T; assay: Tumor cell growth / proliferation; format: cell-based
Excerpt: (§2) • # 7-10 For effective responses, the tumors may require much higher drug concentrations if used alone.
(§3) A differential effect was seen also in ras-transformed fibrosarcoma V7T, when compared to the parental non-tumorigenic N1H3T3 cells.

[5] = test system: Osteosarcoma HOS; assay: Tumor cell growth / proliferation; format: cell-based; conditions: read-out: % Inhibition by NaPA 0.8 mg/ml
Excerpt: as §2, §3

[6] = test system: Osteosarcoma KRIB; assay: Tumor cell growth / proliferation; format: cell-based
Excerpt: as §2, §3

[7] = test system: Astrocytoma U343; assay: Tumor cell growth / proliferation; format: cell-based
[8] = cited from earlier work
[9] = test system: HLA-A; assay: Northern blot analysis of HLA-A mRNA in HL-60; format: cell-based, human; conditions: HL-60, NaPA 0.8 and 1.6 mg/ml
Protocol: as §1
In HL-60, cell transformation has been linked to myc amplification and overexpression, and differentiation would typically require down regulation of myc expression. [Collins, S.J. The HL-60 promyelocytic leukemia cell line: Proliferation, differentiation, and cellular oncogene expression. Blood. 70:1233-1244 (1987)]. […] The 32P-labeled probes used were myc 3rd exon (Oncor) and HLA-A3 Hind III/EcoRI fragment. […] This occurred within 4 hours of treatment, preceding the phenotypic changes detectable by 48 hrs, approximately two cell cycles, after treatment. Similar kinetics of myc inhibition have been reported for other differentiation agents such as dimethyl sulfoxide, sodium butyrate, bromodeoxyuridine, retinoids, and 1,25-dihydroxyvitamin D3. […] It is believed that this may enhance the immunogenicity of tumors in vivo.

[10] = test system: Malignant Melanoma A375; assay: Tumor cell growth / proliferation
[11] = test system: premalignant 4C8 and 10T1/2 cells; assay: Prevention of 5-AzadC-induced malignant conversion in culture; format: cell-based; conditions: NaPA 0.8-1.6 mg/ml, cells exposed to 5-AzadC
Excerpt: It is known that the treatment of premalignant 4C8 and 10T1/2 cells with carcinogens such as 5-AzadC produces malignant conversion of the respective cells. When 4C8 [Remold: et al., Cancer Research, 51:1-7 (1990)] and 10T1/2 cells were exposed to 5-AzadC, malignant conversion was evident in two days and two weeks, respectively.

[12] = test system: Astrocytoma U373; assay: Tumor cell growth / proliferation; format: cell-based; conditions: Homo sapiens
[13] = test system: Astrocytoma U87; assay: Tumor cell growth / proliferation; format: cell-based
[14] = test system: Erythroleukemia K562 cells; assay: Induction of hemoglobin synthesis (benzidine staining, protein quantitation); conditions: for Benzidine Positive Cells: seven days
[15] = test system: Breast Cancer MCF-7; assay: Tumor cell growth / proliferation; format: cell-based; conditions: Homo sapiens
Excerpt: as §2

[16] = test system: Fibrosarcoma RS485; assay: Tumor cell growth / proliferation; format: cell-based; conditions: read-out: % Inhibition by NaPA 0.8 mg/ml
Excerpt: as §2

[17] = test system: Squamous Cancer of Head & Neck A431; assay: Tumor cell growth / proliferation; format: cell-based; conditions: Homo sapiens
Excerpt: as §2

[18] = test system: 4C8a10 cells (revertants of Haras-transformed NIH3T3 fibroblasts); assay: Tumor formation of cells pretreated in culture and injected s.c. into athymic nude mice; format: in vivo; conditions: cells pretreated with NaPA 1.5 mg/ml; after 3 weeks
Excerpt: One-two weeks later the cells were transplanted subcutaneously into athymic mice.
The experimental model involved nonmalignant 4C8a10 cells (revertants of Haras-transformed NIH3T3 fibroblasts). […]
Frederick Cancer Research Facility).

[19] = test system: Prostatic PC3 Cells; assay: Tumorigenicity of pretreated cells in nude mice; format: in vivo, athymic nude mice; conditions: cells pretreated 1 week at 0.8 mg/ml, 8 weeks later
Excerpt: PC3 cells were pretreated for 1 week in culture and then injected (2 x 10^5 cells/animal) s.c. into 4-5 week-old female athymic nude mice. […] The data in Table 4 are a summary of two independent experiments.

[20] = read-out: % Inhibition by NaPA 0.8 mg/ml, 0.8 mg/ml
[21] = read-out: concentration causing about 50% inhibition of growth

Compound: O=C([O-])Cc1ccccc1.[Na+] [NaPA, sodium phenylacetate]
- inhibition at 800 µg/mL [1, 20]: > 50%
- IC50 [1, 21]: 400 to 800 µg/mL
- formation of ras-transformed foci [2]: dose-dependent reduction in the formation of ras-transformed foci
- time to induction of aP2 gene expression [3]: ≤ 24 h
- time to maximal aP2 mRNA levels [3]: ≤ 72 h
- inhibition at 800 µg/mL [4, 20]: ≤ 30%
- IC50 [4, 21]: 1000 to 1500 µg/mL
- inhibition at 800 µg/mL [5]: < 20%
- inhibition at 800 µg/mL [6, 20]: ≤ 30%
- IC50 [6, 21]: 1000 to 1500 µg/mL
- IC50 ([7]; astrocytoma 343, read-out: concentration causing about 50% inhibition of growth): 400 to 800 µg/mL
- inhibition at 800 µg/mL ([7]; read-out: % Inhibition by NaPA 0.8 mg/ml, U343, 0.8 mg/ml): ≥ 50%
- plasma levels ([8]; children with urea cycle disorders, infusion 300-500 mg/kg/day): approximately 800 µg/ml
- plasma levels ([8]; humans, intravenous infusion 250-500 mg/kg/day): 600 to 800 µg/mL
- HLA-A mRNA [9]: time- and dose-dependent accumulation of HLA-A mRNA
- concentration causing about 50% inhibition of growth ([10]; A375): 0.4 to 0.8 mg/mL
- % Inhibition by NaPA 0.8 mg/ml ([10]; A375, 0.8 mg/ml, within one week of treatment): ≥ 70%
- Growth ([10]; NaPA 400 µg/ml): 63.3 % of control
- Viability ([10]; NaPA 400 µg/ml): > 95%
- appearance of the malignant phenotype (cell morphology, contact inhibition, anchorage dependent growth) [11]: prevented the appearance of the malignant phenotype
- IC50 ([12]; U373 MG, read-out: concentration causing about 50% inhibition of growth): 400 to 800 µg/mL
- inhibition at 800 µg/mL ([12]; read-out: % Inhibition by NaPA 0.8 mg/ml, U373, 0.8 mg/ml): ≥ 50%
- IC50 ([13]; Homo sapiens, U-87 MG, read-out: concentration causing about 50% inhibition of growth): 400 to 800 µg/mL
- inhibition at 800 µg/mL [13, 20]: ≥ 50%
- hemoglobin accumulation, increase over control cells ([14]; 0.8 and 1.6 mg/ml): 4-9 fold
- Benzidine Positive Cells ([14]; NaPA 0.8 mg/ml): 6.0%
- Benzidine Positive Cells ([14]; NaPA 1.6 mg/ml): 17.1%
- inhibition at 800 µg/mL ([15]; MCF7, read-out: % Inhibition by NaPA 0.8 mg/ml, MCF-7, 0.8 mg/ml): ≤ 30%
- IC50 ([15]; MCF7, breast tumor MCS-7, read-out: concentration causing about 50% inhibition of growth): 1000 to 1500 µg/mL
- inhibition at 800 µg/mL [16]: ≤ 30%
- inhibition at 800 µg/mL ([17]; A-431, read-out: % Inhibition by NaPA 0.8 mg/ml, 0.8 mg/ml): < 30%
- IC50 ([17]; A-431, read-out: concentration causing about 50% inhibition of growth): 1000 to 1500 µg/mL
- Tumor Formation Incidence [18]: 0/8
- Incidence ([19]; 2 x 10^5 cells/animal s.c.): 1/7
- Diameter [19]: 2 mm ± S.D.
- Weight [19]: 50 mg
